In patent publication US9932314B2, “Pyrazole compounds and their use as T-type calcium channel blockers” (IDORSIA PHARMACEUTICALS LTD, priority 2015, dated 2018):

Target: T1, voltage-dependent T-type calcium channel subunit alpha-1G (Cav3.2) (Homo sapiens, UniProt O95180)
T1 construct: expressed in transfected cells; host or cells: HEK293
Experiment: FLIPR calcium flux assay, HEK293 cells recombinantly expressing Cav3.2
Format: cell-based
Details: Cav3.2-channel, Fluo-4-AM, 3 min incubation, stimulation with 10 mM CaCl2
Experimental: In Vitro Methods—Measurement of Calcium Channel Flux by Means of FLIPR Assays.
HEK293 cells recombinantly expressing either voltage-dependent T-type calcium channel subunit […] (Cav3.2) or voltage-dependent L-type calcium channel subunit alpha-1C (Cav1.2) are assayed for calcium flux using the calcium indicator dye Fluo-4-AM (Molecular Devices) and FLIPR technology (Fluorometric Imaging Plate Reader, Molecular Devices) (Xie X, Van Deusen A L, Vitko I, Babu D A, Davies L A, Huynh N, Cheng H, Yang N, Barrett P Q, Perez-Reyes E. Validation of high throughput screening assays against three subtypes of Ca(v)3 T-type channels using molecular and pharmacologic approaches. Assay and Drug Development Technologies 2007, 5(2), 191-203). The HEK293 cells recombinantly expressing Cav3.2 are maintained in DMEM growth medium (Life Technologies) supplemented with 10% Fetal Bovine Serum (FBS), 100 U/ml penicilin (Life Technologies), 100 μg/ml streptomycin (Life Technologies) and 1 mg/ml G418 (Life Technologies). HEK293 cells recombinantly expressing Cav1.2 are maintained in DMEM growth medium (Life technologies) supplemented with 10% FBS, 0.1 mg/ml G418 (Life Technologies), 0.1 mg/ml hygromycin (Life Technologies) and 40 ug/ml zeocin (Life Technologies).
The seeded plates are incubated overnight at 37° C.
The cells are then washed three times with assay buffer (HBSS 1×; 0.375 g/L NaHCO3; 20 mM Hepes; 1% FBS; pH 7.4) and allowed to rest in 50 μl of wash buffer for 30 minutes.
Stock solutions of test compounds are prepared to a concentration of 10 mM in DMSO. For the Cav3.2 assay, serial dilutions of the compounds are prepared in TEAC buffer (100 mM tetraethylammonium chloride; 20 mM Hepes; 2.5 mM CaCl2; 5 mM KCl; 1 mM MgCl2; 1% FBS; pH 7.2), for the Cav1.2 assay serial dilutions are prepared in assay buffer. […] The compounds are incubated with the cells for 3 minutes and Ca2+ entry is stimulated by adding either CaCl2 to a final concentration of 10 mM (Cav3.2 assay) or by adding KCl to a final concentration of 20 mM (Cav1.2 assay). The kinetics of fluorescence increase are recorded for every well and the area under the fluorescence trace for every compound concentration is used to generate inhibition curves using non-linear regression sigmoidal concentration-response curve analysis with in-house software.

T1 sequence (O95180 whole entry): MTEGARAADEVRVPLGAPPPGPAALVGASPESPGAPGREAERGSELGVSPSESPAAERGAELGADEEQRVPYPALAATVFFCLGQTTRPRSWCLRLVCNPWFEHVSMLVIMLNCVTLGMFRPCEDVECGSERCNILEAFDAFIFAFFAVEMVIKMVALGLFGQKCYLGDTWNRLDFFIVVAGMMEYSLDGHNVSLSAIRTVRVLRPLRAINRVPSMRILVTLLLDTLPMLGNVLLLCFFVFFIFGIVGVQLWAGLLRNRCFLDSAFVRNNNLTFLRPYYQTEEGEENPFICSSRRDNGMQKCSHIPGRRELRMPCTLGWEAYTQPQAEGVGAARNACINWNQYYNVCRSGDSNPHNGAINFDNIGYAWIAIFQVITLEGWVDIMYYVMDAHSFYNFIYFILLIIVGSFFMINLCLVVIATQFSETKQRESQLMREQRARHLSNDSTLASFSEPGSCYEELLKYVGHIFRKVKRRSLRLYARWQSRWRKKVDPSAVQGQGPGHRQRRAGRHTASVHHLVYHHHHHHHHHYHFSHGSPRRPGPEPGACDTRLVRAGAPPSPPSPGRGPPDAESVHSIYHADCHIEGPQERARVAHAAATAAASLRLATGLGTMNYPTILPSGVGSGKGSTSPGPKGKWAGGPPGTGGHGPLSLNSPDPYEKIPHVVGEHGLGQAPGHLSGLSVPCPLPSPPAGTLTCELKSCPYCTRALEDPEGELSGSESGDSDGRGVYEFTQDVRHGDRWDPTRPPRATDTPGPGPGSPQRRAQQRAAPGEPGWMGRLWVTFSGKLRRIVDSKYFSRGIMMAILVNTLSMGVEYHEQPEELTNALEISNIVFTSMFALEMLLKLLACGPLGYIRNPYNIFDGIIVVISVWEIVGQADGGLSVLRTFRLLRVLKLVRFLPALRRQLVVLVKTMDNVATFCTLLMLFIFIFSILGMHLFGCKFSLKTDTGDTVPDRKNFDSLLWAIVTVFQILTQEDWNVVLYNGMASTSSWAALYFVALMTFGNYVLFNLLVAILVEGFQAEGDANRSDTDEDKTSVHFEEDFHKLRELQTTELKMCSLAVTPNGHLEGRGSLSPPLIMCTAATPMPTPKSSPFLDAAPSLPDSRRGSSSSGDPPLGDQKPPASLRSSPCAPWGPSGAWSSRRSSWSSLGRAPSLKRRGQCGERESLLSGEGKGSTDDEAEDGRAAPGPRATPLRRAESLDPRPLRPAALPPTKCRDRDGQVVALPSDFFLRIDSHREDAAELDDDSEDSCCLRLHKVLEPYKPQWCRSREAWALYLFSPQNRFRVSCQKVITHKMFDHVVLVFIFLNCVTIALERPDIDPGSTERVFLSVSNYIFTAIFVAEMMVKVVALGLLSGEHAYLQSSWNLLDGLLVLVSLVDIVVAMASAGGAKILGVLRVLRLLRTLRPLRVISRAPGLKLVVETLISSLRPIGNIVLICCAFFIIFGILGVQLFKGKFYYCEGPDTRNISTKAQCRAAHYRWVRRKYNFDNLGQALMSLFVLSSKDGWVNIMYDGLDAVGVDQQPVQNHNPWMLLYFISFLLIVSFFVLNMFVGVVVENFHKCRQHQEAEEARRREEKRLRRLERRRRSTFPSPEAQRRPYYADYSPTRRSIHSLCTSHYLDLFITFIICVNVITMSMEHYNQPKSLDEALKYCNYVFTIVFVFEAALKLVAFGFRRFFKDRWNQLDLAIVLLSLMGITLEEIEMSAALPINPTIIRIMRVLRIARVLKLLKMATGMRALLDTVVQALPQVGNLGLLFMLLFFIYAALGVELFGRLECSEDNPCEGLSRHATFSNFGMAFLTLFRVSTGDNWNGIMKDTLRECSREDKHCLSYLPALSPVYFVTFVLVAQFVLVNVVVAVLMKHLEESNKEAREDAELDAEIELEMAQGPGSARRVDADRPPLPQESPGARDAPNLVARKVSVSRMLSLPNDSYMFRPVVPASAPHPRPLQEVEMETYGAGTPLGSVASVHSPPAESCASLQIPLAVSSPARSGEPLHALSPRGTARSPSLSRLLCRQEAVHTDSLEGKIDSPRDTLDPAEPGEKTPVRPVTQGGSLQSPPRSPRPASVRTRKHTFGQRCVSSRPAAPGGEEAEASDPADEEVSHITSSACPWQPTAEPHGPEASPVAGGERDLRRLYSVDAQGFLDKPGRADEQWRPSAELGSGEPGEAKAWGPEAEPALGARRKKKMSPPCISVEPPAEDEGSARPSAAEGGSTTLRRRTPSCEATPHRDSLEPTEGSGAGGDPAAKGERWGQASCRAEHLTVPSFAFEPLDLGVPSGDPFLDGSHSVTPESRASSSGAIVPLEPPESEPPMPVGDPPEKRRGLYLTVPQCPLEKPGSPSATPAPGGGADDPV

IC50 | SMILES
43 nM | CCc1ccc(Cn2ccc(NC(=O)Cc3ccc(N(C)C)nc3)n2)cc1 [Example 35, 2-(6-Dimethylamino-pyridin-3-yl)-N-[1-(4-ethyl-benzyl)-1H-pyrazol-3-yl]-acetamide]
160 nM | CN(C)c1ccc(CC(=O)Nc2ccn(Cc3ccc(OC(F)F)cc3)n2)cn1 [Example 36, N-[1-(4-Difluoromethoxy-benzyl)-1H-pyrazol-3-yl]-2-(6-dimethylamino-pyridin-3-yl)-acetamide]
29 nM | CN(C)c1ccc(CC(=O)Nc2ccn(Cc3ccc(OC(F)(F)F)cc3)n2)cn1 [Example 37, 2-(6-Dimethylamino-pyridin-3-yl)-N-[1-(4-trifluoromethoxy-benzyl)-1H-pyrazol-3-yl]-acetamide]
39 nM | Cc1ccc(Cn2ccc(NC(=O)Cc3ccc(N(C)C)nc3)n2)cc1F [Example 38, 2-(6-Dimethylamino-pyridin-3-yl)-N-[1-(3-fluoro-4-methyl-benzyl)-1H-pyrazol-3-yl]-acetamide]
49 nM | Cc1cc(Cn2ccc(NC(=O)Cc3ccc(N(C)C)nc3)n2)ccc1F [Example 39, 2-(6-Dimethylamino-pyridin-3-yl)-N-[1-(4-fluoro-3-methyl-benzyl)-1H-pyrazol-3-yl]-acetamide]
16 nM | CN(C)c1ccc(CC(=O)Nc2ccn(Cc3ccc(F)c(Cl)c3)n2)cn1 [Example 40, N-[1-(3-Chloro-4-fluoro-benzyl)-1H-pyrazol-3-yl]-2-(6-dimethylamino-pyridin-3-yl)-acetamide]
38 nM | CN(C)c1ccc(CC(=O)Nc2ccn(Cc3cc(F)c(F)c(F)c3)n2)cn1 [Example 41, 2-(6-Dimethylamino-pyridin-3-yl)-N-[1-(3,4,5-trifluoro-benzyl)-1H-pyrazol-3-yl]-acetamide]
19 nM | CN(C)c1ccc(CC(=O)Nc2ccn(Cc3ccc(Cl)c(F)c3)n2)cn1 [Example 42, N-[1-(4-Chloro-3-fluoro-benzyl)-1H-pyrazol-3-yl]-2-(6-dimethylamino-pyridin-3-yl)-acetamide]
82 nM | COc1c(F)cc(Cn2ccc(NC(=O)Cc3ccc(N(C)C)nc3)n2)cc1F [Example 43, N-[1-(3,5-Difluoro-4-methoxy-benzyl)-1H-pyrazol-3-yl]-2-(6-dimethylamino-pyridin-3-yl)-acetamide]
372 nM | COc1ccc(Cn2ccc(NC(=O)Cc3ccc(N(C)C)cc3)n2)nc1 [Example 44, 2-(4-Dimethylamino-phenyl)-N-[1-(5-methoxy-pyridin-2-ylmethyl)-1H-pyrazol-3-yl]-acetamide]
33 nM | COc1ccc(Cn2ccc(NC(=O)Cc3ccc(OCC(F)(F)F)cc3)n2)cc1 [Example 45, N-[1-(4-Methoxy-benzyl)-1H-pyrazol-3-yl]-2-[4-(2,2,2-trifluoro-ethoxy)-phenyl]-acetamide]
26 nM | O=C(Cc1ccc(OCC(F)(F)F)cc1)Nc1ccn(Cc2ccc(F)cc2)n1 [Example 46, N-[1-(4-Fluoro-benzyl)-1H-pyrazol-3-yl]-2-[4-(2,2,2-trifluoro-ethoxy)-phenyl]-acetamide]
37 nM | N#Cc1ccc(Cn2ccc(NC(=O)Cc3ccc(OCC(F)(F)F)cc3)n2)cc1 [Example 47, N-[1-(4-Cyano-benzyl)-1H-pyrazol-3-yl]-2-[4-(2,2,2-trifluoro-ethoxy)-phenyl]-acetamide]
138 nM | CCN(C)c1ccc(CC(=O)Nc2ccn(Cc3ccc(F)cc3)n2)cn1 [Example 48, 2-[6-(Ethyl-methyl-amino)-pyridin-3-yl]-N-[1-(4-fluoro-benzyl)-1H-pyrazol-3-yl]-acetamide]
9.2 nM | O=C(Cc1ccc(N2CC(F)(F)C2)cc1)Nc1ccn(Cc2ccc(F)cc2)n1 [Example 49, 2-[4-(3,3-Difluoro-azetidin-1-yl)-phenyl]-N-[1-(4-fluoro-benzyl)-H-pyrazol-3-yl]-acetamide]
11 nM | N#Cc1ccc(Cn2ccc(NC(=O)Cc3ccc(N4CC(F)(F)C4)cc3)n2)cc1 [Example 50, N-[1-(4-Cyano-benzyl)-1H-pyrazol-3-yl]-2-[4-(3,3-difluoro-azetidin-1-yl)-phenyl]-acetamide]
16 nM | COc1ccc(Cn2ccc(NC(=O)Cc3ccc(N4CC(F)(F)C4)cc3)n2)cc1 [Example 51, 2-[4-(3,3-Difluoro-azetidin-1-yl)-phenyl]-N-[1-(4-methoxy-benzyl)-1H-pyrazol-3-yl]-acetamide]

IC50 | SMILES
2.6 nM | O=C(Cc1ccc(N2CC(F)(F)C2)cc1)Nc1ccn(Cc2ccc(F)c(F)c2)n1 [Example 52, 2-[4-(3,3-Difluoro-azetidin-1-yl)-phenyl]-N-[1-(3,4-difluoro-benzyl)-1H-pyrazol-3-yl]-acetamide]
6.7 nM | O=C(Cc1ccc(N2CCC2)cc1)Nc1ccn(Cc2ccc(F)cc2)n1 [Example 53, 2-(4-Azetidin-1-yl-phenyl)-N-[1-(4-fluoro-benzyl)-1H-pyrazol-3-yl]-acetamide]
28 nM | N#Cc1ccc(Cn2ccc(NC(=O)Cc3ccc(N4CCC4)cc3)n2)cc1 [Example 54, 2-(4-Azetidin-1-yl-phenyl)-N-[1-(4-cyano-benzyl)-1H-pyrazol-3-yl]-acetamide]
33 nM | COc1ccc(Cn2ccc(NC(=O)Cc3ccc(N4CCC4)cc3)n2)cc1 [Example 55, 2-(4-Azetidin-1-yl-phenyl)-N-[1-(4-methoxy-benzyl)-1H-pyrazol-3-yl]-acetamide]
285 nM | CN(C)c1ccc(CC(=O)Nc2ccn(Cc3ccc(C#N)c(F)c3)n2)cn1 [Example 58, N-[1-(4-Cyano-3-fluoro-benzyl)-1H-pyrazol-3-yl]-2-(6-dimethylamino-pyridin-3-yl)-acetamide]
4.7 nM | O=C(Cc1ccc(N2CCC2)cc1)Nc1ccn(Cc2ccc(F)c(F)c2)n1 [Example 60, 2-(4-Azetidin-1-yl-phenyl)-N-[1-(3,4-difluoro-benzyl)-1H-pyrazol-3-yl]-acetamide]
3.4 nM | O=C(Cc1ccc(N2CC[C@H](F)C2)cc1)Nc1ccn(Cc2ccc(F)c(F)c2)n1 [Example 61, N-[1-(3,4-Difluoro-benzyl)-1H-pyrazol-3-yl]-2-[4-((S)-3-fluoro-pyrrolidin-1-yl)-phenyl]-acetamide]
3.8 nM | O=C(Cc1ccc(N2CC(F)C2)cc1)Nc1ccn(Cc2ccc(F)c(F)c2)n1 [Example 62, N-[1-(3,4-Difluoro-benzyl)-1H-pyrazol-3-yl]-2-[4-(3-fluoro-azetidin-1-yl)-phenyl]-acetamide]
38 nM | O=C(Cc1ccc(OC2CC2)cc1)Nc1ccn(Cc2ccc(F)cc2)n1 [Example 63, 2-(4-Cyclopropoxy-phenyl)-N-[1-(4-fluoro-benzyl)-1H-pyrazol-3-yl]-acetamide]
80 nM | N#Cc1ccc(Cn2ccc(NC(=O)Cc3ccc(OC4CC4)cc3)n2)cc1 [Example 64, N-[1-(4-Cyano-benzyl)-1H-pyrazol-3-yl]-2-(4-cyclopropoxy-phenyl)-acetamide]
74 nM | COc1ccc(Cn2ccc(NC(=O)Cc3ccc(OC4CC4)cc3)n2)cc1 [Example 65, 2-(4-Cyclopropoxy-phenyl)-N-[1-(4-methoxy-benzyl)-1H-pyrazol-3-yl]-acetamide]
19 nM | O=C(Cc1ccc(OC2CC2)cc1)Nc1ccn(Cc2ccc(F)c(F)c2)n1 [Example 66, 2-(4-Cyclopropoxy-phenyl)-N-[1-(3,4-difluoro-benzyl)-1H-pyrazol-3-yl]-acetamide]
3.4 nM | O=C(Cc1ccc(N2CCC(F)(F)C2)cc1)Nc1ccn(Cc2ccc(F)c(F)c2)n1 [Example 67, N-[1-(3,4-Difluoro-benzyl)-1H-pyrazol-3-yl]-2-[4-(3,3-difluoro-pyrrolidin-1-yl)-phenyl]-acetamide]
4.8 nM | O=C(Cc1ccc(N2CC[C@@H](F)C2)cc1)Nc1ccn(Cc2ccc(F)c(F)c2)n1 [Example 68, N-[1-(3,4-Difluoro-benzyl)-1H-pyrazol-3-yl]-2-[4-((R)-3-fluoro-pyrrolidin-1-yl)-phenyl]-acetamide]
16 nM | N#Cc1ccc(Cn2ccc(NC(=O)Cc3ccc(N4CC[C@@H](F)C4)cc3)n2)cc1 [Example 69, N-[1-(4-Cyano-benzyl)-1H-pyrazol-3-yl]-2-[4-((R)-3-fluoro-pyrrolidin-1-yl)-phenyl]-acetamide]
11 nM | O=C(Cc1ccc(N2CC[C@@H](F)C2)cc1)Nc1ccn(Cc2ccc(F)cc2)n1 [Example 70, N-[1-(4-Fluoro-benzyl)-1H-pyrazol-3-yl]-2-[4-((R)-3-fluoro-pyrrolidin-1-yl)-phenyl]-acetamide]
60 nM | CC(C)c1ccc(CC(=O)Nc2ccn(Cc3ccc(C#N)cn3)n2)cc1 [Example 71, N-[1-(5-Cyano-pyridin-2-ylmethyl)-1H-pyrazol-3-yl]-2-(4-isopropyl-phenyl)-acetamide]
